According to article doi:10.1101/2025.07.30.667614, “Steric control of signaling bias in the immunometabolic receptor GPR84” (bioRxiv, 2025):
Like-named read-outs stand apart in the source and are kept apart here.

Legend:
[1] = target: T1, GPR84 N104A (GPR84-Gi2α fusion protein) (Homo sapiens, UniProt Q9NQS5, N104A); test: [35S]GTPγS binding assay; assay type: biochemical; conditions: for fold reduction in potency compared to wild type: Asn104Ala; for Emax: read-out: Emax ± SEM
T1 construct: FLAG (N); Gαi2-Cys352Ile (fusion partner) (C); expressed in transfected cells
T1 sequence (Q9NQS5 whole entry N104A, the tested form may be a part): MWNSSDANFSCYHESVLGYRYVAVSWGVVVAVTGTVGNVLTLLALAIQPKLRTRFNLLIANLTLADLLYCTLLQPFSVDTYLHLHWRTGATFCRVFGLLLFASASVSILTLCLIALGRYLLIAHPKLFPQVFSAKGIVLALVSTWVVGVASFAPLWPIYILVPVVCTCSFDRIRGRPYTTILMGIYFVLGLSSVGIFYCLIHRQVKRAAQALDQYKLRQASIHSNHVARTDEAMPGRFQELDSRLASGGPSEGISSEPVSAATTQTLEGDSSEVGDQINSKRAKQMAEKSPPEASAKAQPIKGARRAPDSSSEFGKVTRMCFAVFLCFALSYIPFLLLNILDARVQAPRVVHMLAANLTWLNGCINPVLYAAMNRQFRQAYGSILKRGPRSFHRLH
Experimental: (§1) Membranes were generated from Flp-In™ T-REx™ 293 cells following 100 ng/ml doxycycline treatment to induce receptor expression. Cells were washed with ice-cold phosphate-buffered saline (PBS), removed from dishes by scraping and centrifuged at 1,800 x g for 5 min at 4 °C. Pellets were resuspended in TE buffer (10mM Tris-HCl, 0.1 mM EDTA; pH 7.4) containing a protease inhibitor mixture and homogenized with a 5 ml hand-held homogenizer. Samples were centrifuged at 450 x g for 5 min at 4 °C and the supernatant was further centrifuged at 90,000 x g for 45 min at 4 °C. The resulting pellet was resuspended in TE buffer and protein content was assessed using a BCA protein assay kit.
(§2) Prepared membrane protein (3 μg per well) was incubated in assay buffer (20 mM HEPES, 5 mM MgCl2, 160 mM NaCl, 0.05 % fatty-acid-free bovine serum albumin; pH 7.4) containing the indicated ligand concentrations. The reaction was initiated by addition of [^35S]GTPγS (100 nCi per reaction) with 1 μM GDP, and incubated at 30 °C for 60 min. The reaction was terminated by rapid vacuum filtration through GF/C glassfibre filter-bottom 96-well microplates using a UniFilter FilterMate Harvester (PerkinElmer). Unbound radioligand was removed from filters by three washes with ice-cold PBS. Ultima Gold™ XR was added to dried filters, and [^35S]GTPγS binding quantified by liquid scintillation spectroscopy.

[2] = target: T2, GPR84 Y81A (GPR84-Gi2α fusion protein) (Homo sapiens, UniProt Q9NQS5, Y81A); test: [35S]GTPγS binding assay; assay type: biochemical; conditions: for fold reduced potency compared to wild type: Tyr81Ala; for Emax: read-out: Emax ± SEM
T2 construct: FLAG (N); Gαi2-Cys352Ile (fusion partner) (C); expressed in transfected cells
T2 sequence (Q9NQS5 whole entry Y81A, the tested form may be a part): as the sequence (Q9NQS5 whole entry N104A, the tested form may be a part) above, with Y81A, A104N counted along it
Experimental: as §1, §2

[3] = target: T3, GPR84 T167A (GPR84-Gi2α fusion protein) (Homo sapiens, UniProt Q9NQS5, T167A); test: [35S]GTPγS binding assay; assay type: biochemical; conditions: for Emax: read-out: Emax ± SEM; for fold reduction in potency compared to wild type: Thr167Ala
T3 construct: FLAG (N); Gαi2-Cys352Ile (fusion partner) (C); expressed in transfected cells
T3 sequence (Q9NQS5 whole entry T167A, the tested form may be a part): as the sequence (Q9NQS5 whole entry N104A, the tested form may be a part) above, with A104N, T167A counted along it
Experimental: as §1, §2

GPR84 Y332F = target: T4, GPR84 Y332F (Homo sapiens, UniProt Q9NQS5, Y332F); test: [35S]GTPγS binding assay; assay type: biochemical; conditions: for Emax: read-out: Emax ± SEM
T4 construct: FLAG (N); Gαi2-Cys352Ile (fusion partner) (C); expressed in transfected cells
T4 sequence (Q9NQS5 whole entry Y332F, the tested form may be a part): as the sequence (Q9NQS5 whole entry N104A, the tested form may be a part) above, with A104N, Y332F counted along it
Experimental: as §1, §2

[4] = target: T5, GPR84 S169A (GPR84-Gi2α fusion protein) (Homo sapiens, UniProt Q9NQS5, S169A); test: [35S]GTPγS binding assay; assay type: biochemical; conditions: for Emax: read-out: Emax ± SEM; for fold reduced potency compared to wild type: Ser169Ala
T5 construct: FLAG (N); Gαi2-Cys352Ile (fusion partner) (C); expressed in transfected cells
T5 sequence (Q9NQS5 whole entry S169A, the tested form may be a part): as the sequence (Q9NQS5 whole entry N104A, the tested form may be a part) above, with A104N, S169A counted along it
Experimental: as §1, §2

[5] = target: T6, GPR84 W360A (GPR84-Gi2α fusion protein) (Homo sapiens, UniProt Q9NQS5, W360A); test: [35S]GTPγS binding assay; assay type: biochemical; conditions: for fold reduced potency compared to wild type: Trp360Ala; for Emax: read-out: Emax ± SEM
T6 construct: FLAG (N); Gαi2-Cys352Ile (fusion partner) (C); expressed in transfected cells
T6 sequence (Q9NQS5 whole entry W360A, the tested form may be a part): as the sequence (Q9NQS5 whole entry N104A, the tested form may be a part) above, with A104N, W360A counted along it
Experimental: as §1, §2

[6] = target: T7, GPR84 Y69A (GPR84-Gi2α fusion protein) (Homo sapiens, UniProt Q9NQS5, Y69A); test: [35S]GTPγS binding assay; assay type: biochemical; conditions: for Emax: read-out: Emax ± SEM
T7 construct: FLAG (N); Gαi2-Cys352Ile (fusion partner) (C); expressed in transfected cells
T7 sequence (Q9NQS5 whole entry Y69A, the tested form may be a part): as the sequence (Q9NQS5 whole entry N104A, the tested form may be a part) above, with Y69A, A104N counted along it
Experimental: as §1, §2

GPR84 Y332A = target: T8, GPR84 Y332A (Homo sapiens, UniProt Q9NQS5, Y332A); test: [35S]GTPγS binding assay; assay type: biochemical; conditions: for Emax: read-out: Emax ± SEM
T8 construct: FLAG (N); Gαi2-Cys352Ile (fusion partner) (C); expressed in transfected cells
T8 sequence (Q9NQS5 whole entry Y332A, the tested form may be a part): as the sequence (Q9NQS5 whole entry N104A, the tested form may be a part) above, with A104N, Y332A counted along it
Experimental: as §1, §2

[7] = target: T9, GPR84 F187A (GPR84-Gi2α fusion protein) (Homo sapiens, UniProt Q9NQS5, F187A); test: [35S]GTPγS binding assay; assay type: biochemical
T9 construct: FLAG (N); Gαi2-Cys352Ile (fusion partner) (C); expressed in transfected cells
T9 sequence (Q9NQS5 whole entry F187A, the tested form may be a part): as the sequence (Q9NQS5 whole entry N104A, the tested form may be a part) above, with A104N, F187A counted along it
Experimental: as §1, §2

GPR84 = GPR84 (Homo sapiens, UniProt Q9NQS5); test: CHO-K1-based PathHunter β-arrestin-2 recruitment assay; assay type: cell-based; set-up: host or cells: CHO-K1; conditions: for Emax: read-out: β-arrestin-2 %Emax ± SEM
Chain of GPR84 (Q9NQS5 whole entry): as the sequence (Q9NQS5 whole entry N104A, the tested form may be a part) above, with A104N counted along it
Experimental: Cells were stimulated with test ligands for 90 min. Compounds were prepared at 5× concentration in DPBS containing 0.1% BSA and 0.125% Tween-80 to minimise aggregation. β-arrestin recruitment was quantified using the PathHunter® β-Arrestin Assay (DiscoverX 93-0001) following the manufacturer’s instructions. Luminescence was recorded after 18 h using a PHERAstar® FS plate reader.

[8] = F187A, read-out: pEC50 ± SEM (converted)

| SMILES | fold reduction in potency compared to wild type ([1]; [35S]GTPγS) | EC50 ([1]; [35S]GTPγS, N104A) | fold reduced potency compared to wild type ([2]; [35S]GTPγS) | EC50 ([2]; [35S]GTPγS, Y81A) | EC50 ([3]; [35S]GTPγS, T167A) | fold reduction in potency compared to wild type ([3]; [35S]GTPγS) | EC50 (GPR84 Y332F; [35S]GTPγS, Y332F) | EC50 ([4]; [35S]GTPγS, S169A) | fold reduced potency compared to wild type ([4]; [35S]GTPγS) | fold reduced potency compared to wild type ([5]; [35S]GTPγS) | EC50 ([5]; [35S]GTPγS, W360A) | EC50 ([6]; [35S]GTPγS, Y69A) | EC50 (GPR84 Y332A; [35S]GTPγS, Y332A) | EC50 [7, 8] | Emax (GPR84) | further results |
| --- | --- | --- | --- | --- | --- | --- | --- | --- | --- | --- | --- | --- | --- | --- | --- | --- |
| Cc1cc(CCCc2cc(O)c[n+]([O-])c2)ccc1Cl [OX04954] | ~10 fold | 11.7 nM | ~10 fold | 16.2 nM | 15.1 nM | ~10 fold | 4.17 nM | 380 nM | more than 1000 fold | ~10 fold | 13.5 nM | 5.13 nM | 0.427 nM | 0.107 nM | 71 ± 1.3% | Emax ([1]; [35S]GTPγS, N104A): 130 ± 20%; Emax ([2]; [35S]GTPγS, Y81A): 133 ± 18%; Emax ([3]; [35S]GTPγS, T167A): 129 ± 15%; Emax (GPR84 Y332F; [35S]GTPγS, Y332F): 151 ± 10%; Emax ([4]; [35S]GTPγS, S169A): 47 ± 11%; Emax ([5]; [35S]GTPγS, W360A): 75 ± 8%; Emax ([6]; [35S]GTPγS, Y69A): 106 ± 4%; Emax (GPR84 Y332A; [35S]GTPγS, Y332A): 60 ± 11%; change in efficacy in β-arrestin-2 recruitment (GPR84; compared to OX04929 (so in the source)): no significant change; EC50 (GPR84; wild type GPR84, CHO-K1 PathHunter, read-out: β-arrestin-2 pEC50 ± SEM (converted)): 93.3 nM |
| [O-][n+]1cc(O)cc(CCc2ccc(Cl)c(C(F)(F)F)c2)c1 [OX04529] | 5 fold | 3.98 nM | ~10 fold | 21.4 nM | 17.8 nM | greater than 10 fold | 2.57 nM | 417 nM | ~300 fold | ~10 fold | 8.71 nM | 4.57 nM | 0.347 nM | 0.102 nM | 10 ± 1.5% | Emax [1]: 68 ± 8%; Emax [2]: 85 ± 4%; Emax [3]: 82 ± 10%; Emax (GPR84 Y332F): 134 ± 12%; Emax [4]: 30 ± 2%; Emax [5]: 75 ± 10%; Emax [6]: 94 ± 9%; Emax (GPR84 Y332A): 50 ± 12%; fold greater potency than at wild type ([7]; Phe187Ala): more than 10 fold; EC50 ([7]; Phe187Ala, read-out: EC50): ~0.1 nM |
